One block for each molecule: values may come before it.
How the values were obtained:
PDK1 [1] = assay: PDK1 assay: activation of GST-PKBα by purified PDK1 with phospholipid vesicles; format: biochemical, rabbit; conditions: for fold-activation of GST-PKBα (PDK1 activity) / activation of PDK1 (in words): lipid 10 μM in vesicles of 100 μM PtdCho, 100 μM PtdSer, 30 min at 30° C.; for order of level of activation of the 3-phosphoinositide-dependent kinase (most effective first): rabbit skeletal muscle PDK1, FIG. 6; for activation and phosphorylation of GST-PKBα by PDK1 in the presence of Triton X-100: 0.5% (by vol) in the assay
Experimental: (§1) Assay of PDK1. The assay was carried out in two stages; in the first, GST-PKBα was incubated with PDK1 in the presence of MgATP and phospholipid vesicles to permit activation of GST-PKBα.
(§2) After 10 min at 30° C., the reactions were terminated by spotting the reaction mixture on to p81 phosphocellulose paper. The papers were washed in phosphoric acid and analysed as described previously. […] The basal GST-PKBα activity is the activity measured in the absence of PDK1.

PDK1 [2] = assay: Phosphorylation of GST-PKBα by PDK1 with [γ32P]ATP; format: biochemical, rabbit; conditions: lipid 10 μM in PtdCho/PtdSer vesicles
Experimental: Solutions were stored at 4° C. at concentrations 10-fold higher than those required in the assay and used within 2-4 days.
(§3) Phosphorylation of GST-PKB ? by PDK1. The incubations were identical to the Stage 1 described above except that [γ^32P] ATP (200-400 cpm/pmol) was used instead of unlabelled ATP. The reactions were terminated by making the solution 1% (by mass) in SDS. […] The Coomassie blue-staining bands corresponding to GST-PKBα were excised and the ^32P-radioactivity associated with each band was quantified.

GST-PKBα = molecular target: T1, GST-PKBα (Homo sapiens, UniProt P31749); assay: Activity of PDK1 preparations towards GST-PKBα; format: biochemical; conditions: for phosphorylation of GST-PKBα: PtdIns(3,4,5)P3 lipids, high enzyme concentration; for specific activity towards GST-PKBα: in the presence of PtdIns(3,4,5)P3; for fold increase in GST-PKBα activity: in the presence of PtdIns(3,4,5)P3 vesicles
T1 construct: generate a full length cDNA encoding the PKBα gene; made in house; host or cells: human embryonic kidney 293 cells (pEBG2T), serum starved
T1 sequence (P31749 whole entry): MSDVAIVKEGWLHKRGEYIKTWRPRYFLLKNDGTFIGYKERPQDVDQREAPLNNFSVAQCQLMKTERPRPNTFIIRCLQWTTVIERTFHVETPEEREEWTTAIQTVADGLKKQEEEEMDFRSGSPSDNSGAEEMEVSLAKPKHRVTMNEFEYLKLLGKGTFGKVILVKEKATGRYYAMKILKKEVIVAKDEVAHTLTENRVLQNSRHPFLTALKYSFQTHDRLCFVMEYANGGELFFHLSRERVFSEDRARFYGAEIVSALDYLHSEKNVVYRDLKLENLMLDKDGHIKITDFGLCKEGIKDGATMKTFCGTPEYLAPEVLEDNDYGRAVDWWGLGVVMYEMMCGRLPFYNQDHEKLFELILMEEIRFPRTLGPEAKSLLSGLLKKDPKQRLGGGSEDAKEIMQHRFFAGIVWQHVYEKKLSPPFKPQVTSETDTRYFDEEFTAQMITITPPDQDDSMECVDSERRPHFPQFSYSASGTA
Experimental: as §1, §2, §3

order of level of activation of the 3-phosphoinositide-dependent kinase (most effective first) (PDK1 [1]): 1
Molecule: CCCCC/C=C\C/C=C\CCCCCCCC(=O)OCC(COP(=O)(O)OC1C(O)C(OP(=O)(O)O)C(OP(=O)(O)O)C(OP(=O)(O)O)C1O)OC(=O)CCCCCCC/C=C\C/C=C\CCCCC (racemic) [Lipid 5, Racemic sn-1,2-dilinoleoyl PtdIns(3,4,5)P3]
fold-activation of GST-PKBα (PDK1 activity) (PDK1 [1]): 36 fold

order of level of activation of the 3-phosphoinositide-dependent kinase (most effective first) (PDK1 [1]): 2
Molecule: CCCCC/C=C\C/C=C\C/C=C\C/C=C\CCCC(=O)OC(COC(=O)CCCCCCCCCCCCCCCCC)COP(=O)(O)OC1C(O)C(OP(=O)(O)O)C(OP(=O)(O)O)C(OP(=O)(O)O)C1O (single isomer, unassigned) [Lipid 3, D-enantiomer of sn-2-arachidonyl-3-stearoyl PtdIns(3,4,5)P3]
fold-activation of GST-PKBα (PDK1 activity) (PDK1 [1]; 3-stearoyl D-PtdIns(3,4,5)P3): 16 fold | activation of PDK1 (in words) (PDK1 [1]; listed as D-enantiomer of sn-2-arachidonyl-3-stearoyl PtdIns(3,4,5)P3): potently activated PDK1

order of level of activation of the 3-phosphoinositide-dependent kinase (most effective first) (PDK1 [1]): 4
Molecule: CCCCCCCCCCCCCCCC(=O)OCC(COP(=O)(O)OC1C(O)C(OP(=O)(O)O)C(OP(=O)(O)O)C(OP(=O)(O)O)C1O)OC(=O)CCCCCCCCCCCCCCC (centres unmarked) [Lipid 6, sn-1,2 di-palmitoyl PtdIns(3,4,5)P3]
fold less effective in activating PDK1 than the sn-1-stearoyl-2-arachidonyl and sn-2-arachidonyl-3-stearoyl derivatives (PDK1 [1]): ~3 fold | fold-activation of GST-PKBα (PDK1 activity) (PDK1 [1]): about 6 fold | fold-activation of GST-PKBα (PDK1 activity) (PDK1 [1]; listed as sn-1,2-dipalmitoyl D-PtdIns(3,4,5)P3): 5.5 fold

phosphorylation of GST-PKBα (GST-PKBα): 0.75 mol phosphate per mol protein | fold increase in GST-PKBα activity (GST-PKBα): 35 fold
Molecule: GST-PDK1: residues 52-556 of human PDK1 expressed in 293 cells as fusion with glutathione S-transferase
specific activity towards GST-PKBα (GST-PKBα): 78 000 U/mg

phosphorylation of GST-PKBα (GST-PKBα): 0.75 mol phosphate per mol protein | fold increase in GST-PKBα activity (GST-PKBα): 35 fold
B1: GST-DSTPK61: residues 1-752 of Drosophila DSTPK61 expressed in E. coli as GST fusion (protein)
chain: MKCKSWSNKINNYVVRKIKSIKINGTQQQLQLPGSGASGIAAAAVITVASDCGENCSSNGTEHQQHFNIATTTATSATEATMPAMAKEKASATVSLGESNFRDINLKDLAVVVEAASRLHHQQNVCGCGAVSSTENNNNSRYGSSKYLTNGHTSPLAAAVASNSSSVATTPHCRMLHNCSLQQYQNDIRQQTEILDMLRQQHQQGYQSQQQQQQPQQQQEQQQQQEQSQQQQQLQNPAPRRSPNDFIFGRYIGEGSYSIVYLAVDIHSRREYAIKVCEKRLILRERKQDYIKREREVMHQMTNVPGFVNLSCTFQDQRSLYFVMTYARKGDMLPYINRVGSFDVACTRHYAAELLLACEHMHRRNVVHRDLKPENILLDEDMHTLIADFGSAKVMTAHERALATEHCSEQRRSNSDEDDEDSDRLENEDEDFYDRDSEELDDGDDEQQQEEMDSPRHRQRRYNRHRKASFVGTAQYVSPEVLQNGPITPAADLWALGCIVYQMIAGLPPFRGSNDYVIFKEILDCAVDFPQGFDKDAEDLVRKLLRVDPRDRLGAQDEFGYYESIRAHPFFAGIDWQTLRQQTPPPIYPYLPGVSQDEDFRSSYTVPGDLEPGLDERQISRLLSAELGVGSSVAMPVKRSTAKNSFDLNDAEKLQRLEQQKTDKWHVFADGEVILKKGFVNKRKGLFARKRMLLLTTGPRLIYIDPVQMIKKGEIPWSPDLRAEYKNFKIFFVHTPNRTYYLDDPEGYAIHW
modifications: left off: a dimerising Fc or GST
notes: residues 1-752 of Drosophila DSTPK61 expressed in E. coli as GST fusion
specific activity towards GST-PKBα (GST-PKBα): 280 U/mg

fold reduction of the rate of activation of GST-PKBα compared to full length wild-type GST-PDK1 (GST-PKBα; PtdIns(3,4,5)P3 present): about 30 fold
B2: GST-ΔPH-PDK1: PDK1 mutant lacking the putative C-terminal PH domain, residues 1-450, GST fusion (protein, UniProt O15530 1-450, looked up, fragment)
chain: MARTTSQLYDAVPIQSSVVLCSCPSPSMVRTQTESSTPPGIPGGSRQGPAMDGTAAEPRPGAGSLQHAQPPPQPRKKRPEDFKFGKILGEGSFSTVVLARELATSREYAIKILEKRHIIKENKVPYVTRERDVMSRLDHPFFVKLYFTFQDDEKLYFGLSYAKNGELLKYIRKIGSFDETCTRFYTAEIVSALEYLHGKGIIHRDLKPENILLNEDMHIQITDFGTAKVLSPESKQARANSFVGTAQYVSPELLTEKSACKSSDLWALGCIIYQLVAGLPPFRAGNEYLIFQKIIKLEYDFPEKFFPKARDLVEKLLVLDATKRLGCEEMEGYGPLKAHPFFESVTWENLHQQTPPKLTAYLPAMSEDDEDCYGNYDNLLSQFGCMQVSSSSSSHSLSASDTGLPQRSGSNIEQYIHDLDSNSFELDLQFSEDEKRLLLEKQAGGNPWHQ
modifications: GST fusion tag
notes: PDK1 mutant lacking the putative C-terminal PH domain, residues 1-450, GST fusion

Second part, the molecule before the results:

Molecule: CCCCC/C=C\C/C=C\C/C=C\C/C=C\CCCC(=O)OC(COC(=O)CCCCCCCCCCCCCCCCC)COP(=O)(O)OC1C(O)C(OP(=O)(O)O)C(OP(=O)(O)O)C(OP(=O)(O)O)C1O (single isomer, unassigned) [Lipid 4, L-enantiomer of sn-2-arachidonyl-3-stearoyl PtdIns(3,4,5)P3]
activation of PDK1 (in words) (PDK1 [1]): no significant activation | fold-activation of GST-PKBα (PDK1 activity) (PDK1 [1]; 3-stearoyl L-PtdIns(3,4,5)P3): 2.3 fold | activation of PDK1 (in words) (PDK1 [1]; listed as L-enantiomer of sn-2-arachidonyl-3-stearoyl PtdIns(3,4,5)P3): almost ineffective

Molecule: O=P(O)(O)O[C@H]1[C@H](O)[C@@H](OP(=O)(O)O)[C@H](OP(=O)(O)O)[C@@H](OP(=O)(O)O)[C@H]1O [IP4, inositol 1,3,4,5-tetrakisphosphate]
phosphorylation of GST-PKBα by PDK1 (in words) (PDK1 [2]): did not activate PDK1 or induce the phosphorylation | activation of PDK1 (in words) (PDK1 [1]): no significant activation | activation of PDK1 (in words) (PDK1 [1]; listed as Ins(1,3,4,5)P4): did not activate PDK1 | activation of PDK1 (in words) (PDK1 [1]; listed as inositol 1,3,4,5-tetrakisphosphate): did not activate PDK1 at all

Molecule: CCCCCCCCCCCCCCCC(=O)OC[C@H](COP(=O)(O)OC1C(O)C(OP(=O)(O)O)C(O)C(OP(=O)(O)O)C1O)OC(=O)CCCCCCCCCCCCCCC (some centres unmarked) [Lipid 8, sn-1,2 di-palmitoyl PtdIns(3,5)P2]
phosphorylation of GST-PKBα by PDK1 (in words) (PDK1 [2]): did not activate PDK1 or induce the phosphorylation | activation of PDK1 (in words) (PDK1 [1]): no significant activation | activation of PDK1 (in words) (PDK1 [1]; listed as PtdIns(3,5)P2): did not activate PDK1 at all | activation of PDK1 (in words) (PDK1 [1]; listed as lipid 8): did not activate PDK1

Molecule: PtdIns 4P [Lipid 10]
phosphorylation of GST-PKBα by PDK1 (in words) (PDK1 [2]): did not activate PDK1 or induce the phosphorylation | activation of PDK1 (in words) (PDK1 [1]): no significant activation | activation of PDK1 (in words) (PDK1 [1]; listed as PtdIns(4)P): did not activate PDK1 at all | activation of PDK1 (in words) (PDK1 [1]; listed as lipid 10): did not activate PDK1

Molecule: Triton X-100
activation and phosphorylation of GST-PKBα by PDK1 in the presence of Triton X-100 (PDK1 [1]; listed as Triton X100): completely inhibits | activation and phosphorylation of GST-PKBα by PDK1 in the presence of Triton X-100 (PDK1 [1]; listed as Triton-X100): prevented

Molecule: protein tyrosine phosphatase 1B: protein tyrosine phosphatase 1B
PDK1 activity after treatment with phosphatase (PDK1 [1]; high concentrations of phosphatase): no effect on activity

B3: GST-D223A-PDK1: catalytically inactive GST-PDK1 mutant in which Asp223 was changed to Ala (protein, UniProt O15530 1-556, looked up, variant D223A)
3-phosphoinositide-dependent …: MARTTSQLYDAVPIQSSVVLCSCPSPSMVRTQTESSTPPGIPGGSRQGPAMDGTAAEPRPGAGSLQHAQPPPQPRKKRPEDFKFGKILGEGSFSTVVLARELATSREYAIKILEKRHIIKENKVPYVTRERDVMSRLDHPFFVKLYFTFQDDEKLYFGLSYAKNGELLKYIRKIGSFDETCTRFYTAEIVSALEYLHGKGIIHRDLKPENILLNEDMHIQITAFGTAKVLSPESKQARANSFVGTAQYVSPELLTEKSACKSSDLWALGCIIYQLVAGLPPFRAGNEYLIFQKIIKLEYDFPEKFFPKARDLVEKLLVLDATKRLGCEEMEGYGPLKAHPFFESVTWENLHQQTPPKLTAYLPAMSEDDEDCYGNYDNLLSQFGCMQVSSSSSSHSLSASDTGLPQRSGSNIEQYIHDLDSNSFELDLQFSEDEKRLLLEKQAGGNPWHQFVENNLILKMGPVDKRKGLFARRRQLLLTEGPHLYYVDPVNKVLKGEIPWSQELRPEAKNFKTFFVHTPNRTYYLMDPSGNAHKWCRKIQEVWRQRYQSHPDAAVQ
modifications: GST fusion tag
phosphorylation and activation of GST-PKBα (in words) (GST-PKBα; PtdCho/PtdSer lipid vesicles containing PtdIns(3,4,5)P3): did not phosphorylate or active GST-PKBα

Reference: US7842488B2, “Polynucleotides encoding a human 3-phosphoinositide- dependent protein kinase” (Medical Research Council, priority 1997, dated 2010)
